Read-outs that look alike come from different tables or passages of the source.
Target: T1, human mAChR M1 (Homo sapiens, UniProt P11229)
T1 sequence (P11229 1-460): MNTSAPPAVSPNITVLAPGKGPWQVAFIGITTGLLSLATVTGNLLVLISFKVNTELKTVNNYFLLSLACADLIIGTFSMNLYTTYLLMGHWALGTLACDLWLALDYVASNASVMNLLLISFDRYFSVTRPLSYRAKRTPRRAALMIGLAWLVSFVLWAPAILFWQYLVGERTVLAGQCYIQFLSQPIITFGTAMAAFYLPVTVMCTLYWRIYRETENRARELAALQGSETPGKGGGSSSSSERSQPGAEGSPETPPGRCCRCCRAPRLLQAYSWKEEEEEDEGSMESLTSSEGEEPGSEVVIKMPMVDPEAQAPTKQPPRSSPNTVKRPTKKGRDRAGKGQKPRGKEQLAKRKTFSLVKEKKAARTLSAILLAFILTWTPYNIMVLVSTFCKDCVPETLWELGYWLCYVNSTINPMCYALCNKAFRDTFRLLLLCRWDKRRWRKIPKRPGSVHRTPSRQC
Assay: mAChR M1 cell-based functional assay: calcium mobilization, positive allosteric modulator mode (increase in EC20 acetylcholine response)
Conditions: for Emax: read-out: Human M1 Emax (%)
Summary of the method: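 Calcium-flux assay in CHO-K1 cells stably expressing human M1, loaded with Fluo-4 AM (50 min, 37 °C) and read at 1 Hz. Compound (11-point, 1:3 series) was added at 4 s, EC20 acetylcholine at 144 s and EC80 at 230 s. PAM activity is the concentration-dependent rise in the EC20 response, fitted with a four-parameter logistic.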

[1] = Table 1, mAChR M1 cell-based functional assay, PAM mode, species not given, read-out: EC50
[2] = Table 2, human M1, read-out: Human M1 EC50

| Structure (SMILES) | EC50 [1] | EC50 [2] | Emax (Table 2, human M1) | Emax |
| --- | --- | --- | --- | --- |
| Cc1ccc(Oc2cc(C(=O)NC(CO)c3ccccc3)nc3ccsc23)cn1 (stereo not shown) [Compound 27, N-(2-hydroxy-1-phenyl-ethyl)-7-[(6-methyl-3-pyridyl)oxy]thieno[3,2-b]pyridine-5-carboxamide] | > 10 µM |  |  |  |
| Cc1ncc(Cc2cc(C(=O)N[C@@H]3CCCC[C@H]3O)nc3ccsc23)cn1 [Compound 127, N-[(1R,2R)-2-hydroxycyclohexyl]-7-[(2-methylpyrimidin-5-yl)methyl]thieno[3,2-b]pyridine-5-carboxamide] |  | > 10 µM | 79.2% |  |
| O=C(NC1CC2(COC2)C1)c1cc(Cc2ccc(-c3cncs3)cc2)c2sccc2n1 [Compound 398, N-(2-oxaspiro[3.3]heptan-6-yl)-7-[(4-thiazol-5-ylphenyl)methyl]thieno[3,2-b]pyridine-5-carboxamide] |  | 0.438 µM | 60.9% |  |
| Cc1csc2c(Cc3ccc(-c4ccn(C)n4)cc3)cc(C(=O)NC3COC3)nc12 [Compound 307, 3-methyl-7-[[4-(1-methylpyrazol-3-yl)phenyl]methyl]-N-(oxetan-3-yl)thieno[3,2-b]pyridine-5-carboxamide] |  | 3.44 µM | 67.2% |  |
| Cc1ccc(Cc2cc(C(=O)Nc3cc(C)n[nH]3)nc3ccsc23)cn1 [Compound 69, N-(3-methyl-1H-pyrazol-5-yl)-7-[(6-methyl-3-pyridyl)methyl]thieno[3,2-b]pyridine-5-carboxamide] |  | 6.82 µM | 80.3% |  |
| Cn1cc(-c2ccc(Cc3cc(C(=O)NC4CC5(COC5)C4)nc4ccn(C)c34)cn2)cn1 [Compound 471, 1-methyl-7-[[6-(1-methylpyrazol-4-yl)-3-pyridyl]methyl]-N-(2-oxaspiro[3.3]heptan-6-yl)pyrrolo[3,2-b]pyridine-5-carboxamide] |  | 0.39 µM | 85.4% |  |
| Cn1cc(-c2ccc(Cc3cc(C(=O)N[C@H]4CCCCC[C@@H]4O)nc4ccsc34)c(F)c2)cn1 [Compound 54, 7-[[2-fluoro-4-(1-methylpyrazol-4-yl)phenyl]methyl]-N-[(1S,2S)-2-hydroxycycloheptyl]thieno[3,2-b]pyridine-5-carboxamide] |  | > 10 µM | 53.1% |  |
| Cn1ccc(-c2ccc(Cc3cc(C(=O)NCC4CCOC4)nc4ccsc34)cn2)n1 (stereo not shown) [Compound 356, 7-[[6-(1-methylpyrazol-3-yl)-3-pyridyl]methyl]-N-(tetrahydrofuran-3-ylmethyl)thieno[3,2-b]pyridine-5-carboxamide] |  | 0.39 µM | 84.8% |  |
| Cc1csc2c(Cc3ccc(-n4cccn4)cc3)cc(C(=O)NC3CCCNC3=O)nc12 (stereo not shown) [Compound 122, 3-methyl-N-(2-oxo-3-piperidyl)-7-[(4-pyrazol-1-ylphenyl)methyl]thieno[3,2-b]pyridine-5-carboxamide] |  | 0.869 µM | 80.4% |  |
| Cn1ccc(-c2ccc(Cc3cc(C(=O)NC4CCOCC4)nc4ccsc34)cc2)n1 [Compound 254, 7-[[4-(1-methylpyrazol-3-yl)phenyl]methyl]-N-tetrahydropyran-4-yl-thieno[3,2-b]pyridine-5-carboxamide] |  | 0.142 µM | 71.6% |  |
| O=C(N[C@@H]1CCCCC[C@H]1O)c1cc(Cc2ccc(-n3cccn3)cc2)c2sccc2n1 [Compound 77, N-[(1R,2R)-2-hydroxycycloheptyl]-7-[(4-pyrazol-1-ylphenyl)methyl]thieno[3,2-b]pyridine-5-carboxamide] |  | 0.136 µM | 84.8% |  |
| CC1CC(NC(=O)c2cc(Cc3ccc(-c4ccn(C)n4)cc3)c3sccc3n2)CC(C)O1 (stereo not shown) [Compound 326, N-(2,6-dimethyltetrahydropyran-4-yl)-7-[[4-(1-methylpyrazol-3-yl)phenyl]methyl]thieno[3,2-b]pyridine-5-carboxamide] |  | 2.84 µM | 83.9% |  |
| Cc1ccc(Oc2cc(C(=O)NC3CCOCC3)nc3ccsc23)cn1 [Compound 20, 7-[(6-methyl-3-pyridyl)oxy]-N-tetrahydropyran-4-yl-thieno[3,2-b]pyridine-5-carboxamide] | > 10 µM |  |  |  |
| Cc1nc(-c2ccc(Cc3cc(C(=O)NC4CC5(COC5)C4)nc4ccsc34)cc2)cs1 [Compound 178, 7-[[4-(2-methylthiazol-4-yl)phenyl]methyl]-N-(2-oxaspiro[3.3]heptan-6-yl)thieno[3,2-b]pyridine-5-carboxamide] |  | 0.652 µM | 86% |  |
| Cn1cc(-c2ccc(Cc3cc(C(=O)NC4CCOCC4)nc4ccsc34)cc2)cn1 [Compound 268, 7-[[4-(1-methylpyrazol-4-yl)phenyl]methyl]-N-tetrahydropyran-4-yl-thieno[3,2-b]pyridine-5-carboxamide] |  | 0.0595 µM | 70.1% |  |
| CC(C)(C)N1CC(NC(=O)c2cc(Cc3ccc(-c4cscn4)cc3)c3sccc3n2)C1 [Compound 203, N-(1-tert-butylazetidin-3-yl)-7-[(4-thiazol-4-ylphenyl)methyl]thieno[3,2-b]pyridine-5-carboxamide] |  | 2.2 µM | 75.3% |  |
| O=C(NC12CC(C1)C2)c1cc(Cc2ccc(-c3cscn3)cc2)c2sccc2n1 [Compound 201, N-(3-bicyclo[1.1.1]pentanyl)-7-[(4-thiazol-4-ylphenyl)methyl]thieno[3,2-b]pyridine-5-carboxamide] |  | > 10 µM | 38.5% |  |
| Cn1ccc2nc(C(=O)NC3CCOCC3(C)C)cc(Cc3ccc(-c4nccs4)cc3)c21 (stereo not shown) [Compound 485, N-(3,3-dimethyltetrahydropyran-4-yl)-1-methyl-7-[(4-thiazol-2-ylphenyl)methyl]pyrrolo[3,2-b]pyridine-5-carboxamide] |  | 0.662 µM |  | 61.6% |
| O=C(NCC1CCOC1)c1cc(Cc2ccc(-c3cncs3)cc2)c2sccc2n1 (stereo not shown) [Compound 396, N-(tetrahydrofuran-3-ylmethyl)-7-[(4-thiazol-5-ylphenyl)methyl]thieno[3,2-b]pyridine-5-carboxamide] |  | 1.06 µM | 63% |  |
| CN1CCCC(NC(=O)c2cc(Cc3ccc(-c4cscn4)cc3)c3sccc3n2)C1 (stereo not shown) [Compound 210, N-(1-methyl-3-piperidyl)-7-[(4-thiazol-4-ylphenyl)methyl]thieno[3,2-b]pyridine-5-carboxamide] |  | 2.34 µM | 82.2% |  |
| Cn1ccc(-c2ccc(Cc3cc(C(=O)N[C@@H]4CCCOC4)nc4ccsc34)cn2)n1 [Compound 423] |  | 0.637 µM | 70.6% |  |
| Cn1ccc(-c2ccc(Cc3cc(C(=O)N[C@H]4CCCOC4)nc4ccsc34)cn2)n1 [Compound 422, 7-[[6-(1-methylpyrazol-3-yl)-3-pyridyl]methyl]-N-[(3S)-tetrahydropyran-3-yl]thieno[3,2-b]pyridine-5-carboxamide] |  | 1.62 µM | 71.6% |  |
| Cc1nc(-c2ccc(Cc3cc(C(=O)N[C@@H]4CCCC[C@H]4O)nc4ccsc34)cc2)co1 [Compound 168, N-[(1R,2R)-2-hydroxycyclohexyl]-7-[[4-(2-methyloxazol-4-yl)phenyl]methyl]thieno[3,2-b]pyridine-5-carboxamide] |  | 0.0842 µM | 82.6% |  |
| CO[C@@H]1CCCC[C@H]1NC(=O)c1cc(Cc2ccc(-n3cccn3)cc2)c2sccc2n1 [Compound 76, N-[(1R,2R)-2-methoxycyclohexyl]-7-[(4-pyrazol-1-ylphenyl)methyl]thieno[3,2-b]pyridine-5-carboxamide] |  | 0.739 µM | 67.6% |  |
| Cn1cc(-c2ccc(Cc3cc(C(=O)N[C@H]4CC[C@@H]4O)nc4ccsc34)cn2)cn1 [Compound 328, N-[(1S,2S)-2-hydroxycyclobutyl]-7-[[6-(1-methylpyrazol-4-yl)-3-pyridyl]methyl]thieno[3,2-b]pyridine-5-carboxamide] |  | 0.197 µM | 80.5% |  |
| Cc1ncc(Cc2cc(C(=O)NC3C4CC5CC3CC(O)(C5)C4)nc3ccsc23)s1 [Compound 142, N-(1S)-5-hydroxy-2-adamantyl]-7-[(2-methylthiazol-5-yl)methyl]thieno[3,2-b]pyridine-5-carboxamide] |  | 4.95 µM | 23.9% |  |
| O=C(NC1CCCNC1=O)c1cc(Cc2ccc(-n3cccn3)cc2)c2sccc2n1 (stereo not shown) [Compound 78, N-(2-oxo-3-piperidyl)-7-[(4-pyrazol-1-ylphenyl)methyl]thieno[3,2-b]pyridine-5-carboxamide] |  | 0.31 µM | 87.2% |  |
| Cc1nc(-c2ccc(Cc3cc(C(=O)N[C@H]4CCOC[C@@H]4O)nc4ccsc34)cc2)cs1 [Compound 192, N-[(3R,4S)-3-hydroxytetrahydropyran-4-yl]-7-[[4-(2-methylthiazol-4-yl)phenyl]methyl]thieno[3,2-b]pyridine-5-carboxamide] |  | 0.0153 µM | 78.7% |  |
| O=C(NC1CCOC1)c1cc(Cc2ccc(-n3cccn3)cc2)c2sccc2n1 (stereo not shown) [Compound 440, 7-[(4-pyrazol-1-ylphenyl)methyl]-N-tetrahydrofuran-3-yl-thieno[3,2-b]pyridine-5-carboxamide] |  | 1.97 µM | 69.3% |  |
| Cn1ncc2nc(C(=O)NCC3CCO3)cc(Cc3ccc(-c4cscn4)cc3)c21 (stereo not shown) [Compound 494, 1-methyl-N-(oxetan-2-ylmethyl)-7-[(4-thiazol-4-ylphenyl)methyl]pyrazolo-[4,3-b]pyridine-5-carboxamide] |  | 5.02 µM | 52.2% |  |
